This is an account of results in BindingDB's records for doi:10.1021/jm980032l (Wake Forest University School of Medicine, 1998).

Sigma non-opioid intracellular receptor 1 (Cavia porcellus), sequence (Q60492 whole entry, looked up): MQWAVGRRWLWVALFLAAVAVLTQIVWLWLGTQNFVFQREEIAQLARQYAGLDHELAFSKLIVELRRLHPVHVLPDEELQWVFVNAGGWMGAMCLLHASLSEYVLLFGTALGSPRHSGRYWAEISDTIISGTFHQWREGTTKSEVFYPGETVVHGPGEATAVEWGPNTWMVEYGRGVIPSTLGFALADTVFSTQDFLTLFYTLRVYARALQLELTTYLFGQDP

One experiment has as its target Sigma non-opioid intracellular receptor 1 (Cavia porcellus) (UniProt Q60492). The experiment in a line: Compound tested for binding affinity towards sigma 1 receptor in quinea pig brain membranes using [3H](+)-pentazocine as the radioligand.
The term Ki denotes the dissociation constant of the complex between target and ligand, obtained from inhibition or displacement. `O=C(Cc1ccc(O)c(O)c1)NC1CCN(Cc2ccccc2)CC1` [N-(1-Benzyl-piperidin-4-yl)-2-(3,4-dihydroxy-phenyl)-acetamide] yielded a Ki of more than 1000 nM.

The next experiment shares this target. The experiment in a line: Binding affinity against sigma-1 receptor in guinea pig brain membranes using [3H](+)-pentazocine as the radioligand.
`O=C(Cc1ccccc1O)NC1CCN(Cc2ccccc2)CC1` [N-(1-Benzyl-piperidin-4-yl)-2-(2-hydroxy-phenyl)-acetamide]: the Ki stood at 18.8 nM.
`CSc1ccc(NC(=O)NC2CCN(Cc3ccccc3)CC2)cc1` [1-(1-Benzyl-piperidin-4-yl)-3-(4-methylsulfanyl-phenyl)-urea] registered an inhibition constant (Ki) of 63.9 nM.
`O=C(Cc1ccccc1C(F)(F)F)NC1CCN(Cc2ccccc2)CC1` [N-(1-Benzyl-piperidin-4-yl)-2-(2-trifluoromethyl-phenyl)-acetamide]: the affinity, expressed as Ki, was 8.7 nM.
Same read-out and setting: to `O=C(Cc1cccc(C(F)(F)F)c1)NC1CCN(Cc2ccccc2)CC1` [N-(1-Benzyl-piperidin-4-yl)-2-(3-trifluoromethyl-phenyl)-acetamide] belongs 3.92 nM; to `COc1ccccc1CC(=O)NC1CCN(Cc2ccccc2)CC1` [N-(1-Benzyl-piperidin-4-yl)-2-(2-methoxy-phenyl)-acetamide], 30.8 nM; to `O=C(Cc1ccc(O)cc1)NC1CCN(Cc2ccccc2)CC1` [N-(1-Benzyl-piperidin-4-yl)-2-(4-hydroxy-phenyl)-acetamide], 286 nM.
On to `O=C(Cc1ccc(Cl)cc1Cl)NC1CCN(Cc2ccccc2)CC1` [N-(1-Benzyl-piperidin-4-yl)-2-(2,4-dichloro-phenyl)-acetamide], for which the inhibition constant (Ki) came out at 9.66 nM. This Ki lies about 30-fold lower than the previous one.
As to `COc1ccc(NC(=O)NC2CCN(Cc3ccccc3)CC2)c(OC)c1` [1-(1-Benzyl-piperidin-4-yl)-3-(2,4-dimethoxy-phenyl)-urea], the affinity corresponds to a Ki of 30.1 nM.
`COc1cccc(CC(=O)NC2CCN(Cc3ccccc3)CC2)c1` [N-(1-Benzyl-piperidin-4-yl)-2-(3-methoxy-phenyl)-acetamide]: affinity was put at a Ki of 10.5 nM.
Regarding `O=C(Cc1ccc(F)cc1)NC1CCN(Cc2ccccc2)CC1` [N-(1-Benzyl-piperidin-4-yl)-2-(4-fluoro-phenyl)-acetamide], affinity was put at a Ki of 3.43 nM.
Take `O=C(Cc1ccc(C(F)(F)F)cc1)NC1CCN(Cc2ccccc2)CC1` [N-(1-Benzyl-piperidin-4-yl)-2-(4-trifluoromethyl-phenyl)-acetamide]: the inhibition constant (Ki) turned out to be 9.84 nM.
In the case of `O=C(Cc1ccc([N+](=O)[O-])cc1[N+](=O)[O-])NC1CCN(Cc2ccccc2)CC1` [N-(1-Benzyl-piperidin-4-yl)-2-(2,4-dinitro-phenyl)-acetamide], the affinity, expressed as Ki, was 14.2 nM. This Ki and that of the molecule before are within 1.5-fold of each other.
With `O=C(Cc1ccccc1Br)NC1CCN(Cc2ccccc2)CC1` [N-(1-Benzyl-piperidin-4-yl)-2-(2-bromo-phenyl)-acetamide], affinity was put at a Ki of 2.89 nM.
The same measure, in the same setting: to `O=C(Cc1ccc(Cl)cc1)NC1CCN(Cc2ccccc2)CC1` [N-(1-Benzyl-piperidin-4-yl)-2-(4-chloro-phenyl)-acetamide] belongs 6.46 nM; to `O=C(Cc1ccc(O)c(Cl)c1)NC1CCN(Cc2ccccc2)CC1` [N-(1-Benzyl-piperidin-4-yl)-2-(3-chloro-4-hydroxy-phenyl)-acetamide], 23.8 nM; to `O=C(Cc1c(F)cccc1F)NC1CCN(Cc2ccccc2)CC1` [N-(1-Benzyl-piperidin-4-yl)-2-(2,6-difluoro-phenyl)-acetamide], 5.8 nM.
As for `O=C(Cc1c(Cl)cccc1Cl)NC1CCN(Cc2ccccc2)CC1` [N-(1-Benzyl-piperidin-4-yl)-2-(2,6-dichloro-phenyl)-acetamide], the Ki amounted to 7.28 nM.
For `O=C(Cc1cc(F)ccc1F)NC1CCN(Cc2ccccc2)CC1` [N-(1-Benzyl-piperidin-4-yl)-2-(2,5-difluoro-phenyl)-acetamide], the affinity, expressed as Ki, was 4.21 nM.
The molecule `O=C(Cc1ccccc1[N+](=O)[O-])NC1CCN(Cc2ccccc2)CC1` [N-(1-Benzyl-piperidin-4-yl)-2-(2-nitro-phenyl)-acetamide] yielded a Ki of 26.9 nM. This Ki is about 6.4-fold higher than that of the molecule before.
Take `O=C(Cc1ccc(Cl)c(Cl)c1)NC1CCN(Cc2ccccc2)CC1` [N-(1-Benzyl-piperidin-4-yl)-2-(3,4-dichloro-phenyl)-acetamide]: the Ki was 5.22 nM.
Turning to `O=C(Cc1ccc([N+](=O)[O-])cc1)NC1CCN(Cc2ccccc2)CC1` [N-(1-Benzyl-piperidin-4-yl)-2-(4-nitro-phenyl)-acetamide], the inhibition constant (Ki) came out at 18 nM.
In turn, `O=C(Cc1ccc(F)cc1F)NC1CCN(Cc2ccccc2)CC1` [N-(1-Benzyl-piperidin-4-yl)-2-(2,4-difluoro-phenyl)-acetamide] came in with a Ki of 3.87 nM. This Ki is about 4.7-fold lower than that of the molecule before.
`Nc1ccc(CC(=O)NC2CCN(Cc3ccccc3)CC2)cc1` [2-(4-Amino-phenyl)-N-(1-benzyl-piperidin-4-yl)-acetamide] showed a Ki of 470 nM.
On to `COc1ccc(OC)c(CC(=O)NC2CCN(Cc3ccccc3)CC2)c1` [N-(1-Benzyl-piperidin-4-yl)-2-(2,5-dimethoxy-phenyl)-acetamide], for which the affinity corresponds to a Ki of 43.4 nM.
Consider `O=C(Cc1ccccc1Cl)NC1CCN(Cc2ccccc2)CC1` [N-(1-Benzyl-piperidin-4-yl)-2-(2-chloro-phenyl)-acetamide], for which affinity was put at a Ki of 3.08 nM.
Molecule `O=C(Cc1cccc(Cl)c1)NC1CCN(Cc2ccccc2)CC1` [N-(1-Benzyl-piperidin-4-yl)-2-(3-chloro-phenyl)-acetamide] had a Ki of 1.4 nM.
Consider `COc1cc(CC(=O)NC2CCN(Cc3ccccc3)CC2)cc(OC)c1OC` [N-(1-Benzyl-piperidin-4-yl)-2-(3,4,5-trimethoxy-phenyl)-acetamide], for which affinity was put at a Ki of 80 nM.
In turn, `CSc1ccc(CC(=O)NC2CCN(Cc3ccccc3)CC2)cc1` [N-(1-Benzyl-piperidin-4-yl)-2-(4-methylsulfanyl-phenyl)-acetamide] displayed a Ki of 27.1 nM.
Take `O=C(Cc1ccc(F)c(F)c1)NC1CCN(Cc2ccccc2)CC1` [N-(1-Benzyl-piperidin-4-yl)-2-(3,4-difluoro-phenyl)-acetamide]: affinity was put at a Ki of 3.17 nM.
Consider `COc1ccc(CC(=O)NC2CCN(Cc3ccccc3)CC2)cc1OC` [N-(1-Benzyl-piperidin-4-yl)-2-(3,4-dimethoxy-phenyl)-acetamide], for which the Ki is 352 nM.
`O=C(Cc1ccc2c(c1)OCO2)NC1CCN(Cc2ccccc2)CC1` [2-Benzo[1,3]dioxol-5-yl-N-(1-benzyl-piperidin-4-yl)-acetamide] gave a Ki of 7.32 nM.
`COc1cc(CC(=O)NC2CCN(Cc3ccccc3)CC2)cc(OC)c1` [N-(1-Benzyl-piperidin-4-yl)-2-(3,5-dimethoxy-phenyl)-acetamide]: the affinity corresponds to a Ki of 121 nM.
Consider `COc1cccc(C(O)CNC2CCN(Cc3ccccc3)CC2)c1OC` (stereo not given) [2-(1-Benzyl-piperidin-4-ylamino)-1-(2,3-dimethoxy-phenyl)-ethanol], for which the Ki turned out to be 32.1 nM.
As for `O=C(Cc1cccc(F)c1)NC1CCN(Cc2ccccc2)CC1` [N-(1-Benzyl-piperidin-4-yl)-2-(3-fluoro-phenyl)-acetamide], the affinity corresponds to a Ki of 2.45 nM.
Same read-out and setting: to `O=C(Cc1cccc(Br)c1)NC1CCN(Cc2ccccc2)CC1` [N-(1-Benzyl-piperidin-4-yl)-2-(3-bromo-phenyl)-acetamide] belongs 0.87 nM; to `O=C(Cc1cccc(O)c1)NC1CCN(Cc2ccccc2)CC1` [N-(1-Benzyl-piperidin-4-yl)-2-(3-hydroxy-phenyl)-acetamide], 110 nM.
Turning to `O=C(Cc1cc(F)cc(F)c1)NC1CCN(Cc2ccccc2)CC1` [N-(1-Benzyl-piperidin-4-yl)-2-(3,5-difluoro-phenyl)-acetamide], the Ki worked out at 7.63 nM.
The same measure, in the same setting: to `O=C(Cc1cccc([N+](=O)[O-])c1)NC1CCN(Cc2ccccc2)CC1` [N-(1-Benzyl-piperidin-4-yl)-2-(3-nitro-phenyl)-acetamide] belongs 4.56 nM.
In turn, `COc1ccc(CC(=O)NC2CCN(Cc3ccccc3)CC2)cc1` [N-(1-Benzyl-piperidin-4-yl)-2-(4-methoxy-phenyl)-acetamide] showed an inhibition constant Ki of 66.4 nM. This Ki is about 15-fold higher than that of the molecule before.
